According to US12479830B2, “Homopiperazinyl and homopiperidinyl quinazolin-4(3H)-one derivatives having multimodal activity against pain” (ESTEVE PHARMACEUTICALS, S.A., priority 2019, dated 2025):
pKi: −log10 of the molar value.

Columns and labels:
[1] = molecular target: T1, Human σ1 receptor (Homo sapiens, UniProt Q99720); assay: Human σ1 receptor radioligand assay ([3H](+)-pentazocine binding); settings: binding to the σ1 receptor, expressed as Ki class; + also covers inhibition between 1% and 50%
T1 construct: expressed in transfected cells; host or cells: HEK-293
T1 sequence (Q99720 whole entry): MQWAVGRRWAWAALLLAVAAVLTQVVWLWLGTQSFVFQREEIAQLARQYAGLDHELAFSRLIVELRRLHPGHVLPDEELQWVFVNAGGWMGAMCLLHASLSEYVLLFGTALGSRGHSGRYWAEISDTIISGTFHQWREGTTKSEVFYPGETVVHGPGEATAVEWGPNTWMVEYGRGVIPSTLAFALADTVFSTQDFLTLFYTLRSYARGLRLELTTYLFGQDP
Experimental: Human σ1 Receptor Radioligand Assay
Transfected HEK-293 membranes (7 μg) were incubated with 5 nM of [^3H](+)-pentazocine in assay buffer containing Tris-HCl 50 mM at pH 8. NBS (non-specific binding) was measured by adding 10 μM haloperidol. The binding of the test compound was measured at either one concentration (% inhibition at 1 or 10 μM) or five different concentrations to determine affinity values (Ki). Plates were incubated at 37° C. for 120 minutes. After the incubation period, the reaction mix was then transferred to MultiScreen HTS, FC plates (Millipore), filtered and plates were washed 3 times with ice-cold 10 mM Tris-HCL (pH7.4). Filters were dried and counted at approximately 40% efficiency in a MicroBeta scintillation counter (Perkin-Elmer) using EcoScint liquid scintillation cocktail.

[2] = molecular target: Human α2δ-1 subunit of Cav2.2 calcium channel (Homo sapiens, UniProt P54289); assay: Human α2δ-1 subunit of Cav2.2 calcium channel assay ([3H]-gabapentin binding); settings: binding to the α2δ-1 subunit of voltage-gated calcium channels, expressed as Ki class; + also covers inhibition between 1% and 50%
Sequence of Human α2δ-1 subunit of Cav2.2 calcium channel (P54289 25-1103): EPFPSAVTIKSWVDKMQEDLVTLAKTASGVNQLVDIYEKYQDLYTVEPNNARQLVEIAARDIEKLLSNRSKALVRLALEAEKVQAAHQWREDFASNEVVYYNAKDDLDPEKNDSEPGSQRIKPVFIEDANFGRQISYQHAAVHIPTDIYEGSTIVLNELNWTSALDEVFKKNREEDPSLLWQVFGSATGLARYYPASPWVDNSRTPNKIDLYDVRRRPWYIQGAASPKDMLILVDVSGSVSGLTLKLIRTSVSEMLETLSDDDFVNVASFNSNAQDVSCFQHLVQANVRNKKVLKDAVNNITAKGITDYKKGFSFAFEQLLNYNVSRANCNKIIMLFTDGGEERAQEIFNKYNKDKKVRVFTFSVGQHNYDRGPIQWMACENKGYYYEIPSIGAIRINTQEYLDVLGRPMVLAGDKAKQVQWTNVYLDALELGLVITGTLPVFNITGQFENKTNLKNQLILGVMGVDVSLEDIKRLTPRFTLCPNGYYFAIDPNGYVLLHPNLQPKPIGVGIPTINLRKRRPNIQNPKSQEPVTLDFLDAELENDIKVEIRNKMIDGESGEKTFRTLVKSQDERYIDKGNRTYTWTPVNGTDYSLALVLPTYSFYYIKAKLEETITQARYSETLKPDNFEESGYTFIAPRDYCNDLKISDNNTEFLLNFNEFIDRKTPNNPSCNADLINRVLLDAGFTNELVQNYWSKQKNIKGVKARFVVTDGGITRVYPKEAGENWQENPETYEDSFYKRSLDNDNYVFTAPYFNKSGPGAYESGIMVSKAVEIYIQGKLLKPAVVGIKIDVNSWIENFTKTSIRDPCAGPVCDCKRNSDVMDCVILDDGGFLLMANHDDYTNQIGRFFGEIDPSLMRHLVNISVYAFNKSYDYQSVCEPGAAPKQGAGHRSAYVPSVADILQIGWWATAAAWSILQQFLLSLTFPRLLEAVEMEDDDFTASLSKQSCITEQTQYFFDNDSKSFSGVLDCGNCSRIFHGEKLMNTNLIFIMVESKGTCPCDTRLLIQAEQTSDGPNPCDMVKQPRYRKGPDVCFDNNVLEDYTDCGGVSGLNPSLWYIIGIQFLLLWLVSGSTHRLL
Experimental: Human α2δ-1 Subunit of Cav2.2 Calcium Channel Assay
Human α2δ-1 enriched membranes (2.5 μg) were incubated with 15 nM of radiolabeled [^3H]-Gabapentin in assay buffer containing Hepes-KOH 10 mM. pH 7.4. NSB (non specific binding) was measured by adding 10 μM pregabalin. The binding of the test compound was measured at either one concentration (% inhibition at 1 or 10 μM) or five different concentrations to determine affinity values (Ki). After 60 min incubation at 27° C., binding reaction was terminated by filtering through Multiscreen GF/C (Millipore) presoaked in 0.5% polyethyleneimine in Vacuum Manifold Station, followed by 3 washes with ice-cold filtration buffer containing 50 mM Tris-HCl, pH 7.4. Filter plates were dried at 60° C. for 1 h and 30 μL of scintillation cocktail were added to each well before radioactivity reading. Readings were performed in a Trilux 1450 Microbeta radioactive counter (Perkin Elmer).

Compound | pKi [1] | pKi [2]
CCCC(c1nc2ncc(F)cc2c(=O)n1CC1CC1)N1CCN[C@@H](C)CC1 (single isomer, unassigned) [Example 194] | < 6.00 | < 5.30
CCCC(c1nc2ccc(Br)cc2c(=O)n1CC)N1CCCN(C)CC1 (stereo not shown) [Example 1, 6-Bromo-3-ethyl-2-(1-(4-methyl-1,4-diazepan-1-yl)butyl)quinazolin-4(3H)-one] | > 6.30 | > 6.30
CCCC(c1nc2ccc(Br)cc2c(=O)n1CC)N1CCCNCC1 (stereo not shown) [Example 2, 2-(1-(1,4-diazepan-1-yl)butyl)-6-bromo-3-ethylquinazolin-4(3H)-one] | < 6.00 | > 6.30
CCCC(c1nc2cc(Br)ccc2c(=O)n1CC)N1CCCN(C)CC1 (stereo not shown) [Example 3, 7-bromo-3-ethyl-2-(1-(4-methyl-1,4-diazepan-1-yl)butyl)quinazolin-4(3H)-one] | < 6.00 | > 6.30
CCCC(c1nc2cc(Br)ccc2c(=O)n1CC)N1CCCNCC1 (stereo not shown) [Example 4, 2-(1-(1,4-diazepan-1-yl)butyl)-7-bromo-3-ethylquinazolin-4(3H)-one] | < 6.00 | > 6.30
CCCC(c1nc2ccc(Br)cc2c(=O)n1CC)N1CCCN(CCc2ccccc2)CC1 (stereo not shown) [Example 5, 6-bromo-3-ethyl-2-(1-(4-phenethyl-1,4-diazepan-1-yl)butyl)quinazolin-4(3H)-one] | > 6.30 | 5.30 to 6.30
CCCC(c1nc2ccc(Br)cc2c(=O)n1CC)N1CCCN(Cc2ccccc2)CC1 (stereo not shown) [Example 6, 2-(1-(4-benzyl-1,4-diazepan-1-yl)butyl)-6-bromo-3-ethylquinazolin-4(3H)-one] | > 6.30 | < 5.30
CCCC(c1nc2ccc(Br)cc2c(=O)n1CC)N1CCCN(CC)CC1 (stereo not shown) [Example 7, 6-bromo-3-ethyl-2-(1-(4-ethyl-1,4-diazepan-1-yl)butyl)quinazolin-4(3H)-one] | > 6.30 | > 6.30
CCCC(c1nc2ccc(C)cc2c(=O)n1CC)N1CCCN(C)CC1 (stereo not shown) [Example 8, 3-ethyl-6-methyl-2-(1-(4-methyl-1,4-diazepan-1-yl)butyl)quinazolin-4(3H)-one] | < 6.00 | > 6.30
CCCC(c1nc2cc(C#N)ccc2c(=O)n1CC)N1CCCN(C)CC1 (stereo not shown) [Example 9, 3-ethyl-2-(1-(4-methyl-1,4-diazepan-1-yl)butyl)-4-oxo-3,4-dihydroquinazoline-7-carbonitrile] | < 6.00 | > 6.30
CCCC(c1nc2ccc(C#N)cc2c(=O)n1CC)N1CCCN(C)CC1 (stereo not shown) [Example 10, 3-ethyl-2-(1-(4-methyl-1,4-diazepan-1-yl)butyl)-4-oxo-3,4-dihydroquinazoline-6-carbonitrile] | < 6.00 | > 6.30
CCCC(c1nc2cc(C)ccc2c(=O)n1CC)N1CCCN(C)CC1 (stereo not shown) [Example 11, 3-ethyl-7-methyl-2-(1-(4-methyl-1,4-diazepan-1-yl)butyl)quinazolin-4(3H)-one] | < 6.00 | > 6.30
CCCC(c1nc2ccc(I)cc2c(=O)n1CC)N1CCCN(C)CC1 (stereo not shown) [Example 12, 3-ethyl-6-iodo-2-(1-(4-methyl-1,4-diazepan-1-yl)butyl)quinazolin-4(3H)-one] | > 6.30 | > 6.30
CCCC(c1nc2cc(F)c(Br)cc2c(=O)n1CC)N1CCCN(C)CC1 (stereo not shown) [Example 13, 6-bromo-3-ethyl-7-fluoro-2-(1-(4-methyl-1,4-diazepan-1-yl)butyl)quinazolin-4(3H)-one] | > 6.30 | > 6.30
CCCC(c1nc2ccc(Br)cc2c(=O)n1CCOC)N1CCCN(C)CC1 (stereo not shown) [Example 14, 6-bromo-3-(2-methoxyethyl)-2-(1-(4-methyl-1,4-diazepan-1-yl)butyl)quinazolin-4(3H)-one] | < 6.00 | 5.30 to 6.30
CCCC(c1nc2ccc(Br)c(F)c2c(=O)n1CC)N1CCCN(C)CC1 (stereo not shown) [Example 51, 6-bromo-3-ethyl-5-fluoro-2-(1-(4-methyl-1,4-diazepan-1-yl)butyl)quinazolin-4(3H)-one] | > 6.30 | –
